Measurements from patent US10399970B2, “Pyrridinobenzodiazepine and benzopyrridodiazecine compounds” (FEMTOGENIX LIMITED, priority 2015, dated 2019).

Legend:
[1] = system: MDA MB231 (triple negative human breast cancer); assay: Cytotoxicity analysis by MTT assay; type: cell-based; details: MDA-MB-231, 96 hours exposure, read-out: IC50 (nanomolar) MDA MB 231 (Triple negative breast cancer cell line)
Procedure: MDA MB231 (triple negative human breast cancer) was obtained from the American Type Culture Collection. The cell-line was maintained in monolayer culture in 75 cm^2 flasks (TPP, Switzerland) under a humidified 5% CO2 atmosphere at 37° C. The MDA MB231 cell line was maintained in high glucose DMEM (4.5 g\l; Invitrogen), foetal bovine serum (10%, Biosera UK), non-essential amino acids (ix; Invitrogen), L-glutamine (2 mM; Invitrogen) and Penicillin-Streptomycin (1% v/v, Invitrogen). For passaging, cells were washed with PBS (GIBCO 14040, Invitrogen, UK), incubated with trypsine (GIBCO 25300, Invitrogen, UK), and re-seeded into fresh medium. For seeding, cells were counted using a Neubauer haemocytometer (Assistant, Germany) by microscopy (Nikon, USA) on a non-adherent suspension of cells that were washed in PBS, trypsinised, centrifuged at 8° C. at 8000 rpm for 5 min and re-suspended in fresh medium.
The cells were grown in normal cell culture conditions at 37° C. under a 5% CO2 humidified atmosphere using appropriate medium. […] After 96 h of continuous exposure to each compound, the cytotoxicity was determined using the 3-(4,5-Dimethylthiazol-2-yl)-2,5-diphenyltetrazolium bromide (MTT) (Lancaster Synthesis Ltd, UK) colorimetric assay. Absorbance was quantified by spectrophotometry at X=570 nm (Envision Plate Reader, PerkinElmer, USA). […]

[2] = system: cancer cell lines; details: some cancer cell lines; cited from earlier work
[3] = Phase I clinical evaluation; cited from earlier work

## COC(=O)c1cc2cc(NC(=O)c3cc(NC(=O)CO[C@@H]4CCN5C(=O)c6cc(OC)c(OC)cc6N=C[C@@H]5C4)cn3C)ccc2s1 [Compound 23, Methyl 5-(4-(2-(((6aS,8R)-2,3-dimethoxy-12-oxo-6a,7,8,9,10,12-hexahydrobenzo[e]pyrido[1,2-a][1,4]diazepin-8-yl)oxy)acetamido)-1-methyl-1H-pyrrole-2-carboxamido)benzo[b]thiophene-2-carboxylate]
[1]
  IC50: 221 nM

## COC(=O)c1cc(-c2ccc(NC(=O)c3nc(NC(=O)CCCOc4cc5c(cc4OC)C(=O)N4CCC[C@H]4C=N5)cn3C)cc2)cn1C
[2]
  cytotoxic activity range: femtomolar range

## C=C1C[C@H]2C=Nc3cc(OCCCOc4cc5c(cc4OC)C(=O)N4CC(=C)C[C@H]4C=N5)c(OC)cc3C(=O)N2C1
[3]
  adverse effects: lower-limb edema and fatigue
